Test results as given in patent US20240381872A1, “SUBSTITUTED 2,3-DIHYDRO[1,3]THIAZOLO[4,5-B]PYRIDINES, SALTS THEREOF AND THEIR USE AS HERBICIDALLY ACTIVE SUBSTANCES” (BAYER AKTIENGESELLSCHAFT, priority 2021, published 2024).

Legend:
Type in all cases: in vivo
[1] = system: Setaria viridis (SETVI); assay: Herbicidal pre-emergence action, section A (Table A8); details: for pest or weed control at 320 g/ha: Setaria viridis, 504 h, read-out: pre-emergence activity against SETVI in %
Outline: (§1)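 Pre-emergence soil-surface application: WP or EC formulations in water plus 0.5% additive, sprayed at 600 l/ha onto soil covering seeds sown in sandy loam. Visual percent damage rated at about 3 weeks against untreated pots, 100% meaning plants died off and 0% meaning like controls.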

[2] = system: Poa annua (POAAN); assay: Herbicidal pre-emergence action, section A (Table A7); details: visual grading after ca. 3 weeks vs untreated controls
Outline: as §1

[3] = system: Kochia scoparia (KCHSC); assay: Herbicidal post-emergence action, section B (Table B4); details: visual rating about 3 weeks after treatment vs untreated controls
Outline: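 In this greenhouse assay, compounds in WP or EC form were applied post-emergence with 0.5% additive at a water rate of 600 liters per hectare. Treatment took place at the one-leaf stage, and injury was rated visually about 3 weeks later against untreated plants.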

[4] = system: Polygonum convolvulus (POLCO); assay: Herbicidal post-emergence action, section E (Table E7); details: visual assessment ca. 3 weeks after spraying
Outline: (§2)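 WP/EC sprayed on single-leaf plants (sandy loam, greenhouse, 2–3 wk post-sowing), 0.5% additive, 600 l/ha water; visual % damage vs untreated at ~3 wk.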

[5] = system: Alopecurus myosuroides (ALOMY); assay: Herbicidal post-emergence action, section E (Table E2); details: application rate 320 g/ha, assessed visually after ca. 3 weeks; for pest or weed control at 320 g/ha: Alopecurus myosuroides, post-emergence, 504 h, read-out: post-emergence activity against ALOMY in %
Source text: Seeds of mono- and dicotyledonous weed plants and crop plants were sown, in plastic or organic planting pots, in sandy loam, covered with soil and grown in a greenhouse under controlled growth conditions. 2 to 3 weeks after sowing, the test plants were sprayed in the single-leaf stage. The compounds according to the invention, formulated in form of wettable powders (WP) or as emulsifiable concentrates (EC), were sprayed onto the green plant parts as aqueous suspension or emulsion, with the addition of 0.5% of an additive, at an application rate of 600 l of water/ha (converted). The test plants were placed in the greenhouse for ca. 3 weeks under optimum growth conditions, and then the effect of the preparations was assessed visually in comparison with untreated controls (herbicidal effect in percent (%): 100% effect=plants have died off, 0% effect=as control plants).

[6] = system: Veronica persica (VERPE); assay: Herbicidal post-emergence action, section E (Table E9); details: visual assessment ca. 3 weeks after spraying
Outline: as §2

[7] = system: Lolium rigidum (LOLRI); assay: Herbicidal pre-emergence action, section A (Table A5); details: visual grading after ca. 3 weeks vs untreated controls; for pest or weed control at 320 g/ha: Lolium rigidum, pre-emergence, 504 h, read-out: pre-emergence activity against LOLRI in %
Outline: as §1

[8] = system: Alopecurus myosuroides (ALOMY); assay: Herbicidal pre-emergence action, section C (Table C2); details: visual grading after ca. 3 weeks vs untreated controls; for pest or weed control at 320 g/ha / pest or weed control at 80 g/ha: Alopecurus myosuroides, pre-emergence, 504 h, read-out: pre-emergence activity against ALOMY in %
Outline: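 Compounds applied as aqueous WP or EC preparations (0.5% additive, 600 l water/ha) onto soil covering freshly sown seeds in sandy loam. Herbicidal effect is visually estimated % damage after about 3 weeks, where 100% means plants died off and 0% matches controls.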

[9] = system: Veronica persica (VERPE); assay: Herbicidal pre-emergence action, section A (Table A10)
Outline: as §1

[10] = system: Glycine max (GLXMA); assay: Post-emergence effects on crop plants, section F (Table F4); details: application rate 80 g/ha; for post-emergence activity against GLXMA in %: crop plant damage
Outline: (§3)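 Post-emergence greenhouse test: crops grown 2 to 3 weeks in sandy loam, sprayed at 320 g/ha or less in 600 l water/ha with 0.5% additive. Injury rated visually as percent relative to controls roughly three weeks later.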

[11] = system: Zea mays (ZEAMX); assay: Post-emergence effects on crop plants, section F (Table F1); details: for post-emergence activity against ZEAMX in %: crop plant damage; for percent crop plant damage (phytotoxicity) on Zea mays, post-emergence at 80 g/ha: 504 h, read-out: post-emergence activity against ZEAMX in %
Outline: as §3

[12] = system: Oryza sativa (ORYZA); assay: Post-emergence effects on crop plants, section F (Table F3); details: for percent crop plant damage at 80 g/ha: Oryza sativa, 504 h, application rate 80 g/ha, read-out: post-emergence activity against ORYZA in %
Outline: as §3

[13] = Poa annua, pre-emergence, 504 h, application rate 320 g/ha, read-out: pre-emergence activity against POAAN in %
[14] = Fallopia convolvulus, 504 h, application rate 80 g/ha, read-out: post-emergence activity against POLCO in %
[15] = Veronica persica, 504 h, application rate 1280 g/ha, read-out: pre-emergence activity against VERPE in %
[16] = Veronica persica, 504 h, application rate 320 g/ha, read-out: post-emergence activity against VERPE in %
[17] = Bassia scoparia, post-emergence, 504 h, application rate 320 g/ha, read-out: post-emergence activity against KCHSC in %

SMILES	pre-emergence activity against POAAN in % ([2]; application rate 320 g/ha) [%]	post-emergence activity against KCHSC in % ([3]; application rate 320 g/ha) [%]	post-emergence activity against POLCO in % ([4]; application rate 320 g/ha) [%]	post-emergence activity against ALOMY in % [5] [%]	post-emergence activity against VERPE in % ([6]; application rate 320 g/ha) [%]	pre-emergence activity against LOLRI in % ([7]; application rate 320 g/ha) [%]	pre-emergence activity against VERPE in % ([9]; application rate 1280 g/ha) [%]	post-emergence activity against GLXMA in % [10] [%]	pre-emergence activity against SETVI in % ([1]; application rate 320 g/ha) [%]	post-emergence activity against ZEAMX in % ([11]; application rate 320 g/ha) [%]	pre-emergence activity against ALOMY in % ([8]; application rate 320 g/ha) [%]	pest or weed control at 320 g/ha ([1]; application rate 320 g/ha) [%]	pest or weed control at 320 g/ha [5] [%]	pest or weed control at 320 g/ha ([7]; application rate 320 g/ha) [%]	percent crop plant damage at 80 g/ha [12] [%]	also measured
COC(=O)CCC(=O)N1CSc2cc(C)c(-c3ccccc3F)nc21 [Example I-010]	100	90	90	80	80	100	90	0								pre-emergence activity against SETVI in % ([1]; application rate 1280 g/ha): 100%; pre-emergence activity against ALOMY in % ([8]; application rate 80 g/ha): 90%
CC1(C(=O)N2CSc3cc(Br)c(-c4ccccc4)nc32)CC(Cl)=NO1 (centres unmarked) [Example I-139]	100		90	80	80		90	20	100	0	80					post-emergence activity against KCHSC in % ([3]; application rate 1280 g/ha): 90%; pre-emergence activity against LOLRI in % ([7]; application rate 1280 g/ha): 100%
Cc1cc2c(nc1-c1ccccc1F)NCS2 [Example I-007, 5-(2-fluorophenyl)-6-methyl-2,3-dihydro[1,3]thiazolo[4,5-b]pyridine]												100	90	100	10	pest or weed control at 320 g/ha [2, 13]: 100%; pest or weed control at 1280 g/ha ([3]; Bassia scoparia, post-emergence, 504 h, application rate 1280 g/ha, read-out: post-emergence activity against KCHSC in %): 90%; pest or weed control at 80 g/ha [4, 14]: 90%; pest or weed control at 80 g/ha ([6]; Veronica persica, 504 h, application rate 80 g/ha, read-out: post-emergence activity against VERPE in %): 80%; percent crop plant damage (phytotoxicity) on Zea mays, post-emergence at 80 g/ha ([11]; application rate 80 g/ha): 0%; pest or weed control at 320 g/ha ([8]; application rate 320 g/ha): 100%; pest or weed control at 1280 g/ha [9, 15]: 90%
Cc1cc2c(nc1-c1ccccc1Cl)NCS2 [Example I-049, 5-(2-chlorophenyl)-6-methyl-2,3-dihydro[1,3]thiazolo[4,5-b]pyridine]													80		20	pest or weed control at 80 g/ha [4, 14]: 80%; pest or weed control at 320 g/ha [6, 16]: 80%; pest or weed control at 320 g/ha ([8]; application rate 320 g/ha): 100%
Cc1cc2c(nc1-c1cccc(F)c1F)NCS2 [Example I-029, 5-(2,3-difluorophenyl)-6-methyl-2,3-dihydro[1,3]thiazolo[4,5-b]pyridine]												100	80	100	0	pest or weed control at 1280 g/ha ([2]; Poa annua, pre-emergence, 504 h, application rate 1280 g/ha, read-out: pre-emergence activity against POAAN in %): 100%; pest or weed control at 320 g/ha [3, 17]: 90%; pest or weed control at 320 g/ha ([4]; Fallopia convolvulus, 504 h, application rate 320 g/ha, read-out: post-emergence activity against POLCO in %): 90%; percent crop plant damage (phytotoxicity) on Zea mays, post-emergence at 80 g/ha ([11]; application rate 80 g/ha): 0%; pest or weed control at 80 g/ha ([8]; application rate 80 g/ha): 100%; pest or weed control at 1280 g/ha [9, 15]: 90%
Cc1cc2c(nc1-c1ccccc1F)N(S(=O)(=O)Cc1ccc(F)cc1)CS2 [Example I-122]	100	90	90	90	90	100	90	10	100	0	100					
CCS(=O)(=O)N1C[S+]([O-])c2cc(C)c(-c3ccccc3C)nc21 (centres unmarked) [Example I-074]												100	90	100	0	pest or weed control at 320 g/ha [2, 13]: 100%; pest or weed control at 320 g/ha [3, 17]: 90%; pest or weed control at 320 g/ha [6, 16]: 90%; pest or weed control at 80 g/ha ([8]; application rate 80 g/ha): 80%; pest or weed control at 320 g/ha ([9]; Veronica persica, 504 h, application rate 320 g/ha, read-out: pre-emergence activity against VERPE in %): 90%; percent crop plant damage at 80 g/ha ([10]; Glycine max, 504 h, read-out: post-emergence activity against GLXMA in %): 0%
COC(=O)CCC(=O)N1CSc2cc(Cl)c(-c3ccccc3F)nc21 [Example I-003]		90		80		100	90	0	100	0	80					pre-emergence activity against POAAN in % ([2]; application rate 1280 g/ha): 100%; post-emergence activity against ORYZA in % ([12]; crop plant damage, application rate 320 g/ha): 0%
Cc1cc2c(nc1-c1ccccc1F)N(C(=O)C13CCCC1C(Cl)=NO3)CS2 (centres unmarked) [Example I-104]	100	90	90	80		100	90		100		100					post-emergence activity against VERPE in % ([6]; application rate 80 g/ha): 80%; post-emergence activity against ZEAMX in % ([11]; application rate 80 g/ha): 20%
COCC1(C(=O)N2CSc3cc(C)c(-c4ccccc4F)nc32)CC(Cl)=NO1 (centres unmarked) [Example I-128]	100	90		90		100			100	0						post-emergence activity against POLCO in % ([4]; application rate 80 g/ha): 90%; post-emergence activity against VERPE in % ([6]; application rate 80 g/ha): 80%; pre-emergence activity against ALOMY in % ([8]; application rate 80 g/ha): 90%; pre-emergence activity against VERPE in % ([9]; application rate 320 g/ha): 90%
